Source: article PMC9304322, “Targeting retinoic acid receptor alpha-corepressor interaction activates chaperone-mediated autophagy and protects against retinal degeneration” (Nature Communications, 2022)
“And” between values parts separate entries of the source, which are not always exact repeats. Equal values may be shown once.

System: KFERQ-Dendra mice
Assay: CMA activity in tissues of KFERQ-Dendra mice;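 as to % cells: percentage of blood CD4+ T cells with more than 3 CMA puncta per cell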
Assay type: in vivo, mouse
Set-up: Fig. 3g value / Fig. 3g value, Mean 2: unit not given here
Conditions: for Fig. 3g value, Mean 2: group mean of the test details, n 6; for Fig. 3g value / % cells: single replicate values; for % cells: Fig. 3d; for fluorescent Dendra+ puncta in liver: KFERQ-Dendra mice, i.p. 30 mg/kg bw daily for 3 days; for number of Dendra+ puncta per cell in retina (Fig. 4f), average / number of Dendra+ puncta per cell in retina (Fig. 4f), individual fields: flat-mounted retinas; for number of Dendra+ puncta per MAP2 + cell (Fig. 4b), individual sections: hippocampus (CA1 region), i.p. 30 mg/kg bw daily for three consecutive days
Method: C57BL/6 J mice wild-type (WT) and homozygous for the Pde6 mutation (rd10 mouse model of retinal degeneration) were obtained from The Jackson Laboratory and experiments were performed at the age indicated in each part of the study. C57BL/6 KFERQ-Dendra mice were generated by back-crossing FVB KFERQ-Dendra mice with wild-type C57BL/6 mice for 8 generations. Both male and female animals were used in this study in equally distribution groups. However, results from both sexes were pooled, because of absence of significant differences in any of the parameters analyzed after statistical analysis with a mixed model of two-way ANOVA sex and treatment as independent variables and the corresponding measure as dependent variable. All animals were housed in a barrier-controlled facility (19–23 °C 30–60% relative humidity; 12 h light/dark cycle) with ad libitum access to standard chow pellets (protein 19 gm%/carbohydrate 67 gm%/fat 4 gm%) and water. For animal administration of CA compounds, a formula containing 30% PEG 400 (Sigma, #8.0745), 65% of 5% glucose solution, 5% Tween 80 (Sigma, #P1754) was used to dissolve them. CA compounds were prepared freshly by adding 5% DMSO and sonicating for 1 h. Treatment of KFERQ-Dendra mice with the CA compounds was done at 4 months of age by i.p. daily injection of 30 mg/kg bw or vehicle for three consecutive days and tissues collected 6 h after the last injection. In the case of rd10 mice, animals were daily injected from P18 to P25 with CA77 (40 mg/kg bw). In the case of intravitreal administration, a single intravitreal injection was applied at P18 with CA77 (40 µM) in DMSO/PBS and the contralateral eye was injected with PBS and DMSO at same concentration. At P26, mice were sacrificed and eyes fixed overnight with 4% PFA (Sigma, #P6148) in PBS at 4 °C for immunofluorescence or retinas dissected and immediately frozen for biochemistry. Distribution of animals in the vehicle or treatment group was done randomly. ICR (CD-1) outbred 3 months old male mice from ENVIGO were used for the pharmacokinetic studies (see pharmacokinetic section for housing and handling details). All animal studies and procedures complied with ethical regulations, were performed in accordance with the European Union guidelines and the ARVO Statement for the Use of Animals in Ophthalmic and Vision Research and were approved by the Institutional Animal Care and Use Committee at the Albert Einstein College of Medicine, the CSIC Bioetica Comite and approved by the Comunidad de Madrid, PROEX232/17.
All mice were perfused with PBS. Livers were post-fixed overnight at 4 °C in picric acid fixation buffer (2% formaldehyde, 0.2% picric acid in PBS, pH7.0) and then washed with 70% ethanol, followed by two washes in PBS. Livers were immersed in 30% sucrose and then embedded in OCT for sectioning in a cryostat (Leica CM3050 S). After airdrying for 30 min, sections were stored at −20 °C until use. Brains were post-fixed for 12 h in 4% paraformaldehyde, cryoprotected in PBS containing 20% sucrose before being frozen by immersion in a cold isopentane bath (−50 °C), and stored immediately at −80 °C until sectioning. Brains were also sectioned in a cryostat at −20 °C in coronal 40 μm-thick free-floating sections. Immunostainings were performed after permeabilization of the sections with 0.3% Triton X-100 in PBS for 30 minutes at RT followed by blocking (10% normal goat serum, 2% Triton X-100 in PBS) and subsequent incubation with the primary and appropriate anti-species secondary antibody. Cell nuclei were stained using Hoechst (Life Technologies, 33342) at 1:5000 for 30 s (in retina) or 10 min (in brain sections) prior to mounting. Images were acquired with a Leica confocal TCS-SP8 (Leica Microsystem) using an HCX Plan Apo CS ×63.0 1.40 NA oil objective and the Leica Application Suite X (LAS X). Puncta was quantified using ImageJ Software (NIH)[38] after thresholding. […]

[1] = i.p. 30 mg/kg bw daily for three days
[2] = i.p. 30 mg/kg bw daily for three days, 30 mg/kg

## CC(=O)Nc1ccc(C2=Nc3ccc(Cl)cc3OC2)cc1 [CA77]
  Fig. 3g value, Mean 2: 17.33
  Fig. 3g value: 10 and 12 and 22 and 23 and 19 and 18
  % cells: 9% and 28% and 12% and 18% and 22% and 17% and 32% and 26%
  fluorescent Dendra+ puncta in liver: significant increase in the number of fluorescent Dendra^+ puncta
[1]
  number of Dendra+ puncta per cell in retina (Fig. 4f), average: 1.396 puncta/cell
[2]
  number of Dendra+ puncta per cell in retina (Fig. 4f), individual fields: 1.250 puncta/cell and 1.040 puncta/cell and 1.583 puncta/cell and 1.063 puncta/cell and 1.100 puncta/cell and 1.667 puncta/cell and 1.375 puncta/cell and 1.846 puncta/cell and 1.000 puncta/cell and 1.750 puncta/cell and 1.684 puncta/cell
30 mg/kg
  number of Dendra+ puncta per MAP2 + cell (Fig. 4b), individual sections: 22 and 17 and 15 and 26 and 12 and 18 and 9 and 5

## Clc1ccc2c(c1)OCC(c1ccc(-c3ccccc3)cc1)=N2 [CA39]
  Fig. 3g value, Mean 2: 20
  Fig. 3g value: 16.28 and 30.33 and 23.44 and 14.29 and 16.39 and 19.29
  % cells: 21% and 39% and 30% and 21.8% and 22.6% and 12.2% and 9.5% and 24.2% and 12.8% and 21.2%
  fluorescent Dendra+ puncta in liver: significant increase in the number of fluorescent Dendra^+ puncta
[1]
  number of Dendra+ puncta per cell in retina (Fig. 4f), average: 1.185 puncta/cell
[2]
  number of Dendra+ puncta per cell in retina (Fig. 4f), individual fields: 1.154 puncta/cell and 0.857 puncta/cell and 0.867 puncta/cell and 0.700 puncta/cell and 1.556 puncta/cell and 1.350 puncta/cell and 1.500 puncta/cell and 0.737 puncta/cell and 1.385 puncta/cell and 0.958 puncta/cell and 0.950 puncta/cell and 2.000 puncta/cell and 1.182 puncta/cell and 1.400 puncta/cell
30 mg/kg
  number of Dendra+ puncta per MAP2 + cell (Fig. 4b), individual sections: 20 and 22 and 18 and 25 and 16 and 15 and 12 and 10
Midbrain substantia nigra, i.p. 30 mg/kg bw daily for three days, 30 mg/kg
  number of Dendra+ puncta in individual TH+ cells (Fig. S8d): 27 and 32 and 4 and 2 and 55 and 34 and 23 and 3 and 21 and 1 and 48 and 38 and 6 and 39 and 22 and 45 and 12 and 35
